Data: PMC5377466 (Scientific Reports, 2014)

Assays:
[1] = Pharmacokinetics of oral EVL in rats without and with coadministered curcumin; type: in vivo; details: for AUC(0-t): male, Sprague-Dawley, rat, whole blood, po, 0.5 mg/kg, AUC0-540, area under the blood concentration-time curve from 0 to 540 min
[2] = cited from earlier work
CYP3A4 = CYP3A4 (Homo sapiens, UniProt P08684); assay: Vivid CYP450 screening kit, recombinant CYP 3A4 activity; type: biochemical; details: recombinant CYP3A4 BACULOSOMES, probe Vivid BOMR
P-gp = P-gp (Homo sapiens, UniProt P08183); assay: P-gp mediated transport of rhodamine 123; type: cell-based; details: LS 180 cells, 4-h incubation
[3] = EVL 0.5 mg/kg + curcumin 50 mg/kg
[4] = EVL 0.5 mg/kg + curcumin 100 mg/kg

Chain of CYP3A4 (P08684 whole entry): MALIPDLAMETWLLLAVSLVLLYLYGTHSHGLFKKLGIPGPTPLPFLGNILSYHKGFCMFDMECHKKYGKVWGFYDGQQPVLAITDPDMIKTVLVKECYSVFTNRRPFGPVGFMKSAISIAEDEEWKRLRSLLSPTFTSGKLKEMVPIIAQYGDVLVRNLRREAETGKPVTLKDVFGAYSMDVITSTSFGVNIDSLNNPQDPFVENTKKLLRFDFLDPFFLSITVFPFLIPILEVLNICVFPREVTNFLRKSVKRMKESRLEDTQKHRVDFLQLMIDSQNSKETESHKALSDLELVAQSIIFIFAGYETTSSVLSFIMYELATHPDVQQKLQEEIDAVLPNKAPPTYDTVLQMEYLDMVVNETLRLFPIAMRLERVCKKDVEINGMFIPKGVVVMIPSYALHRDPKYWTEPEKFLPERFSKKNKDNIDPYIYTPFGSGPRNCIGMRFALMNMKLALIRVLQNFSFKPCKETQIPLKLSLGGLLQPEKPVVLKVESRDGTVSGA
Chain of P-gp (P08183 whole entry): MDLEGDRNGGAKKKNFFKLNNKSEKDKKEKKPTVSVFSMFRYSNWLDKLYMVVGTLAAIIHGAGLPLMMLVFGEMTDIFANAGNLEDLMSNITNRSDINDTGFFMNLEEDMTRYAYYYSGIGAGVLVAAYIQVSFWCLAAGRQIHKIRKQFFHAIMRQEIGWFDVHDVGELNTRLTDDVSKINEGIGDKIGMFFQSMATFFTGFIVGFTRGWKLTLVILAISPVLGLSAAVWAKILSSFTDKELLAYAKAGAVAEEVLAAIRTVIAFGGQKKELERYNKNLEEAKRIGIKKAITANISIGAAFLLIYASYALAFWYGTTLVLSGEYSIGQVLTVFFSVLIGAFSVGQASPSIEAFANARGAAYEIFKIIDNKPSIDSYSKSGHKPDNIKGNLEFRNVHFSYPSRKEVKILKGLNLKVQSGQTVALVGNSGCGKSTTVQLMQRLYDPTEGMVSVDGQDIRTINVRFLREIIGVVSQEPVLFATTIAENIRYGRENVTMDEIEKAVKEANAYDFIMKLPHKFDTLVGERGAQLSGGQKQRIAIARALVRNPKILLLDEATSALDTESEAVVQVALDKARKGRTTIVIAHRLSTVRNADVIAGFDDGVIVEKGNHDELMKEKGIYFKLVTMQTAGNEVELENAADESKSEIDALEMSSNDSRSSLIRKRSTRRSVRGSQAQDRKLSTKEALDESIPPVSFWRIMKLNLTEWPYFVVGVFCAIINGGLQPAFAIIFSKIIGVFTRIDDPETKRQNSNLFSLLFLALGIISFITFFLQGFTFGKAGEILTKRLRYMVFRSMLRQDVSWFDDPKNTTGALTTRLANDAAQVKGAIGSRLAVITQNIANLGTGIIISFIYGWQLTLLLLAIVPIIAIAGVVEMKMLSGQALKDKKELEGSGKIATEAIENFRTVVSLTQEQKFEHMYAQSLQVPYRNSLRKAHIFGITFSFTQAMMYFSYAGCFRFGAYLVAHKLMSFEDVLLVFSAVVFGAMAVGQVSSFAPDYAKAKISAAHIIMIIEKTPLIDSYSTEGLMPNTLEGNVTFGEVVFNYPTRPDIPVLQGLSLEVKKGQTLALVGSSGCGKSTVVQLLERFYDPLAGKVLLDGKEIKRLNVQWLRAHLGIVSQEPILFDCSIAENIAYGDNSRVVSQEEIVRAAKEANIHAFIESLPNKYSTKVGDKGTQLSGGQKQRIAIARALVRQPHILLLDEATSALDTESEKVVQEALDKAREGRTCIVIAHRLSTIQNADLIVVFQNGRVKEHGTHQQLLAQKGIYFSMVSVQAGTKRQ

CO[C@H]1C[C@@H]2CC[C@@H](C)[C@@](O)(O2)C(=O)C(=O)N2CCCC[C@H]2C(=O)O[C@H]([C@H](C)C[C@@H]2CC[C@@H](OCCO)[C@H](OC)C2)CC(=O)[C@H](C)/C=C(\C)[C@@H](O)[C@@H](OC)C(=O)[C@H](C)C[C@H](C)/C=C/C=C/C=C/1C [EVL, Everolimus]
Change of AUC0-540 versus EVL alone [1, 3]: −70.6% | Change of Cmax versus EVL alone [1, 3]: −76.7% | Change of AUC0-540 versus EVL alone [1, 4]: −71.5% | Change of Cmax versus EVL alone [1, 4]: −76.7% | Change of MRT versus EVL alone [1, 4]: 35.3% | AUC(0-t) ([1]; oral EVL 0.5 mg/kg + curcumin 50 mg/kg): 8.03 ng·h/mL | AUC(0-t) ([1]; oral EVL 0.5 mg/kg + curcumin 100 mg/kg): 7.77 ng·h/mL | AUC(0-t) ([1]; oral EVL 0.5 mg/kg alone): 27.3 ng·h/mL | Half-life [2]: 18 to 35 h | Oral bioavailability [2]: 15–16% | Time to peak concentration ([2]; oral): 0.5 to 4.0 h

O=C(/C=C/c1ccc(O)cc1)CC(=O)/C=C/c1ccc(O)cc1 [bis-demethoxycurcumin]
inhibition at 30 min, 0.5 µM (CYP3A4): 10% | inhibition at 30 min, 1 µM (CYP3A4): 10%

COc1cc(/C=C/C(=O)CC(=O)/C=C/c2ccc(O)c(OC)c2)ccc1O [curcumin, Diferuloylmethane]
Effect on the MRT of EVL by coadministered curcumin ([1]; curcumin 50 mg/kg oral with EVL 0.5 mg/kg): not affected | Decrease of the efflux function of P-gp (rhodamine 123 accumulation) (P-gp; 25 μM): 13.2% | Decrease of the efflux function of P-gp (rhodamine 123 accumulation) (P-gp; 50 μM): 16.7% | Decrease of the efflux function of P-gp (rhodamine 123 accumulation) (P-gp; 100 μM): 172.9% | inhibition at 30 min, 5 µM (CYP3A4): 93% | inhibition at 30 min, 10 µM (CYP3A4): 90%

COc1cc(/C=C/C(O)=C/C(=O)/C=C/c2ccc(O)cc2)ccc1O [demethoxycurcumin]
inhibition at 30 min, 5 µM (CYP3A4): 21% | inhibition at 30 min, 10 µM (CYP3A4): 53%
